According to ChEMBL document CHEMBL5584334, “Discovery of a Covalent Inhibitor of Pro-Caspase-1 Zymogen Blocking NLRP3 Inflammasome Activation and Pyroptosis” (J Med Chem, 2024):
Activity calls are given as the source filed them. No cut-off for these calls is given here.

How the values were obtained:
[1] = biological target: NACHT, LRR and PYD domains-containing protein 3 (Mus musculus) (UniProt Q8R4B8); test: Inhibition of NLRP3 inflammasome activation in LPS/nigericin stimulated mouse J774.A1 cells assessed as reduction in IL-18 production pretreated with LPS for 3 hrs prior to compound addition for 30 mins followed by nigericin addition and measured after 45 mins by ELISA; assay type: cell-based; details: time 75.0 min
Sequence of NACHT, LRR and PYD domains-containing protein 3 (Mus musculus) (Q8R4B8 whole entry, the tested form may be a part): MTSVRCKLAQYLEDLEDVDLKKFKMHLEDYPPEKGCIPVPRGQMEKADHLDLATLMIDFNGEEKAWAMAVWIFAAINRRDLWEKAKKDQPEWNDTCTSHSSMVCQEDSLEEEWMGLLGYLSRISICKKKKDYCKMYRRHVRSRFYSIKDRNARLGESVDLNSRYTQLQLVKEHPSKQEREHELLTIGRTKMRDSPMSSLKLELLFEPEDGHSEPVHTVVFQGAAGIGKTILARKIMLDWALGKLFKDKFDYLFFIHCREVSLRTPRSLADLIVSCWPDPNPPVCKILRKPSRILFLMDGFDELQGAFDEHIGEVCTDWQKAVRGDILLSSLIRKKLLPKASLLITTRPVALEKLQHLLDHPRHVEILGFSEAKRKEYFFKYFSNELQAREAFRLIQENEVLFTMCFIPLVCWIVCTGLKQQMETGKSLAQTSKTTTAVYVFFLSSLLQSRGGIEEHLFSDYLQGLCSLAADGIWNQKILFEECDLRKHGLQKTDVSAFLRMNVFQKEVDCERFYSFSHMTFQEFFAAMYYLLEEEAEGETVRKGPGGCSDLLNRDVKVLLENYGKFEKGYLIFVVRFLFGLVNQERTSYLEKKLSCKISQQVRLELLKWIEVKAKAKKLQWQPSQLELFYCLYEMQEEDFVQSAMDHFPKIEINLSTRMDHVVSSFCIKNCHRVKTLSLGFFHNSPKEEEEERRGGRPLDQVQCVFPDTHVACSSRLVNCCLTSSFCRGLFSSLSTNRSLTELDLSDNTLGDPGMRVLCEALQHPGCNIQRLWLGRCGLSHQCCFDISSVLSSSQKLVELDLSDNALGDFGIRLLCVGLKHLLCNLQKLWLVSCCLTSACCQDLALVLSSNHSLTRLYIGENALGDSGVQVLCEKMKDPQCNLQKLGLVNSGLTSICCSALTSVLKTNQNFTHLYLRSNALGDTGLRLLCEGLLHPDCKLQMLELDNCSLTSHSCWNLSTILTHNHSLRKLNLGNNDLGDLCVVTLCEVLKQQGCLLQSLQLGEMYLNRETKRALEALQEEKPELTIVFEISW

[2] = biological target: NACHT, LRR and PYD domains-containing protein 3 (Mus musculus) (UniProt Q8R4B8); test: Inhibition of NLRP3 inflammasome activation in LPS/ATP stimulated mouse J774.A1 cells assessed as reduction in IL-18 production incubated for 30 mins by ELISA; assay type: cell-based
[3] = biological target: NACHT, LRR and PYD domains-containing protein 3 (Mus musculus) (UniProt Q8R4B8); test: Inhibition of NLRP3 inflammasome activation in LPS/MSU stimulated mouse J774.A1 cells assessed as reduction in IL-18 production incubated for 4 hrs by ELISA; assay type: cell-based
[4] = system: THP-1; test: Inhibition of p20 fragment of IL-1beta protein expression in LPS/nigericin stimulated human THP-1 cells supernatant at 0.5 to 2 uM by Western blotting analysis; assay type: functional, cell-based; details: dose 0.5-2 µM
[5] = system: THP-1; test: Effect on pro-caspase 1 protein expression in LPS/MSU stimulated human THP-1 cells supernatant by Western blotting analysis; assay type: functional, cell-based
[6] = system: THP-1; test: Effect on pro-1L-1beta protein expression in LPS/MSU stimulated human THP-1 cells supernatant by Western blotting analysis; assay type: functional, cell-based
[7] = system: THP-1; test: Inhibition of p20 fragment of caspase 1 protein expression in LPS/MSU stimulated human THP-1 cells supernatant by Western blotting analysis; assay type: functional, cell-based
[8] = system: THP-1; test: Effect on pro-caspase 1 protein expression in LPS/ATP stimulated human THP-1 cells supernatant by Western blotting analysis; assay type: functional, cell-based
[9] = system: THP-1; test: Inhibition of p20 fragment of IL-1beta protein expression in LPS/ATP stimulated human THP-1 cells supernatant by Western blotting analysis; assay type: functional, cell-based
[10] = biological target: T1, Caspase-3 (Mus musculus) (UniProt P70677); test: Inhibition of cisplatin induced caspase-3 activation in mouse J774.A1 cells at 2 uM preincubated for 30 mins followed by cisplatin addition and incubated overnight; assay type: cell-based
T1 sequence (whole entry): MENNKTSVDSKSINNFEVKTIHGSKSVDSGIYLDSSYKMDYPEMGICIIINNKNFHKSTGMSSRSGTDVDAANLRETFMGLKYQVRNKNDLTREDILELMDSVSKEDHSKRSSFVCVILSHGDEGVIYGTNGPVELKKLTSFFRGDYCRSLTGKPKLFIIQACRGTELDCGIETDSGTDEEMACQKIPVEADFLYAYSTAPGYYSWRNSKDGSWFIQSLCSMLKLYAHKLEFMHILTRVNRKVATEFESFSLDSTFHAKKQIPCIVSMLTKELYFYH

[11] = system: THP-1; test: Effect on cleaved caspase-4 expression in human THP-1 cells at 2 uM pretreated with pam3CSK4 for 3 hrs followed by compound addition for 30 mins prior to cytosolic LPS stimulation for 16 hrs by ELISA; assay type: functional, cell-based; details: time 16.5 hrs
[12] = system: J774.A1; test: Inhibition of pro-caspase 1 to RIP2 interaction in LPS stimulated mouse J774.A1 cells at 1 uM by immunoprecipitation method; assay type: cell-based
[13] = system: J774.A1; test: Downregulation of p65 phosphorylation in mouse J774.A1 cells at 0.5 to 2 uM preincubated for 30 mins followed by LPS addition and measured after 2 hrs by Western blotting analysis; assay type: functional, cell-based; details: dose 0.5-2 µM, time 2.5 hrs
[14] = system: J774.A1; test: Inhibition of NLRP3 colocalization in LPS/nigericin stimulated mouse J774.A1 cells by fluorescent staining based assay; assay type: functional, cell-based
[15] = biological target: T2, Caspase-1 (Mus musculus) (UniProt P29452); test: Irreversible binding affinity to caspase-1 in LPS-induced mouse J774.A1 cells assessed as reduction in IL-1beta level at 0.5 to 2 uM pretreated with LPS for 3 hrs followed by compound addition for 30 mins prior to compound washout then nigericin addition for 1 hr by ELISA; assay type: cell-based; details: dose 0.5-2 µM
T2 sequence (whole entry): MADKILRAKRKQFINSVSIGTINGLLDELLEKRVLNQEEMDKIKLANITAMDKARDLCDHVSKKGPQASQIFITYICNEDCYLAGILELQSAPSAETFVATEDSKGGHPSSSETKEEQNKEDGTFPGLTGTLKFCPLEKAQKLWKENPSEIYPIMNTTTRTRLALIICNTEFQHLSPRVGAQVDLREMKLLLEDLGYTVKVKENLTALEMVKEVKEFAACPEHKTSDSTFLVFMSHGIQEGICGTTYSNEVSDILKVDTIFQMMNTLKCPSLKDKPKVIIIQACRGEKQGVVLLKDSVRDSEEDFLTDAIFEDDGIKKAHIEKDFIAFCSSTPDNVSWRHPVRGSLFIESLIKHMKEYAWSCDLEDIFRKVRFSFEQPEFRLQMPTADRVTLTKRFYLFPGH

[16] = system: J774.A1; test: Binding affinity to pro-caspase 1 in mouse J774.A1 cells assessed as increase in protein stability incubated for 30 mins by CETSA; assay type: cell-based; details: dose 1-100 µM
[17] = system: Caspase-1 (Homo sapiens), P29466 [C244A]; test: Inhibition of recombinant caspase-1 C244A mutant (unknown origin) at 100 uM relative to control
Sequence of Caspase-1 (Homo sapiens), P29466 [C244A] (P29466 whole entry C244A): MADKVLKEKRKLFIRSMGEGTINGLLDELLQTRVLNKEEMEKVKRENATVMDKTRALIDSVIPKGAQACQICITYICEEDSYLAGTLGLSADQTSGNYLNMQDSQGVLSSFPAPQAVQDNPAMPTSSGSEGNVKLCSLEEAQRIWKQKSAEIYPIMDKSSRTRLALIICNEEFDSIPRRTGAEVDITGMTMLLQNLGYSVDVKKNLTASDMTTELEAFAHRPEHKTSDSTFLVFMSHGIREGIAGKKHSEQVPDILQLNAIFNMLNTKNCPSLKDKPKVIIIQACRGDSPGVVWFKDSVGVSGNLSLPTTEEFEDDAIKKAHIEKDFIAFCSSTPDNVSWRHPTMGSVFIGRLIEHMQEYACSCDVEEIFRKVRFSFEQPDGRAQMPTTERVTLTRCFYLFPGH

[18] = system: Caspase-1 (Homo sapiens), P29466 [C169A]; test: Binding affinity to recombinant caspase-1 C169A mutant (unknown origin) at 2 uM by SDS-PAGE analysis
Sequence of Caspase-1 (Homo sapiens), P29466 [C169A] (P29466 whole entry C169A, the tested form may be a part): as the sequence (P29466 whole entry C244A) above, with C169A, A244C counted along it

[19] = biological target: NACHT, LRR and PYD domains-containing protein 3 (Mus musculus) (UniProt Q8R4B8); test: Inhibition of NLRP3 inflammasome activation in LPS primed Casp1 knockout mouse BMDM cells transfected with caspase-1 C397A mutant assessed as reduction in IL-1beta release at 2 uM preincubated for 30 mins followed by nigericin stimulation; assay type: cell-based
[20] = biological target: NACHT, LRR and PYD domains-containing protein 3 (Mus musculus) (UniProt Q8R4B8); test: Inhibition of NLRP3 inflammasome activation in LPS primed Casp1 knockout mouse BMDM cells transfected with caspase-1 C285A/C397A double mutant assessed as reduction in IL-1beta release at 2 uM preincubated for 30 mins followed by nigericin stimulation; assay type: cell-based
[21] = system: HEK293T; test: Inhibition of recombinant caspae-1 C397A mutant (unknown origin) to GSDMD (unknown origin) interaction expressed in HEK293T cells; assay type: cell-based; details: Homo sapiens
[22] = Acute toxicity in Kunming mouse assessed as heart damage at 100 mg/kg, ip administered for 14 days; assay type: organism-based; details: in vivo, 336 h, time 14 day
[23] = Acute toxicity in Kunming mouse assessed as change in ALT level at 100 mg/kg, ip administered for 14 days; assay type: organism-based; details: in vivo, 336 h, time 14 day
[24] = Tmax in rat at 10 mg/kg, iv; assay type: ADME, organism-based; details: in vivo
[25] = system: Mus musculus; test: Anti-inflammatory activity in MSU/C18:0 free fatty acid induced Kunming mouse model of gouty arthritis assessed as reduction in joint swelling at 5 to 20 mg/kg, ip preadministered with compound for 30 mins followed by MSU/C18:0 free fatty acid injection and measured after 24 hrs; assay type: functional, organism-based; details: dose 5-20 mg/kg, time 24.5 hrs
[26] = system: Mus musculus; test: (§1) Anti-inflammatory activity in MSU/C18:0 free fatty acid induced Kunming mouse model of gouty arthritis assessed as reduction IL-1beta release at 5 to 20 mg/kg, ip preadministered with compound for 30 mins followed by MSU/C18:0 free fatty acid injection and measured after 24 hrs by ELISA; assay type: functional, organism-based; details: dose 5-20 mg/kg, time 24.5 hrs
[27] = system: Mus musculus; test: as §1, with “expression” for “release”, “Western blotting analysis” for “ELISA”; assay type: functional, organism-based; details: dose 5-20 mg/kg, time 24.5 hrs

For `COc1ccc2c(c1)[C@]1(C=C[C@H](N=C=S)C[C@H]1C(=O)OC(C)(C)C)C(=O)N2C(=O)OCc1ccccc1`, the inhibition [1] was “Dose-Dependent Effect”, the inhibition [2] was “Active” and the inhibition [3] was “Active”. For the same compound, the inhibition [4] was “Active”, the Activity [5] was “inactive” and the Activity [6] was “inactive”. For the same compound, the inhibition [7] was “Active”, the Activity [8] was “inactive” and the inhibition [9] was “Active”. The inhibition [10] was “inactive”, the Activity [11] was “inactive” and the inhibition [12] was “Active”. For the same compound, the Activity [13] was “Active”, the inhibition [14] was “Active” and the Activity [15] was “Active”. The Activity [16] was “Dose-Dependent Effect”, the inhibition [17] was “inactive” and the Activity [18] was “Active”. The inhibition [19] was “inactive”, the inhibition [20] was “inactive” and the inhibition [21] was “inactive”. For the same compound, the Activity [22] was “Non-Toxic”, the Activity [23] was “Non-Toxic” and the Tmax [24] was 4.98 min. The Activity [25] was “Active”, the Activity [26] was “Active” and the Activity [27] was “Active”.
